Assay results: US6864244B2, “Anhydrous crystalline 1-[4(S)-azido-2(S),3(R)-dihydroxy-4-(hydroxymethyl)-1(R)-cyclopentyl]cytosine hemisulfate as useful as an antiviral agent” (Roche Palo Alto LLC, priority 2002, dated 2005)
Read-outs that look alike come from different tables or passages of the source.

Key:
Assay type in all cases: physicochemical
[1] = Differential scanning calorimetry (DSC), thermal properties
[2] = Polymorph transformation in the presence of moisture
[3] = Accelerating rate calorimetric (ARC) determination (adiabatic calorimetry conditions)
[4] = Hygroscopicity at 93% relative humidity (weight gain, HPLC assay)
Description: (§1) A small amount of the polymorphic Form C crystal (about 10 mg) was weighed into a weighing bottle and placed in a chamber with controlled relative humidity for 4 weeks and the percentage of water absorbed was calculated form the weight gain. The sample was also assayed by HPLC against an external standard on a Waters 2690 HPLC at 276 nm with a Zorbax SB-Phenyl column. The mobile phase is a gradient run at 1 mL/min consisting of acetonitrile/water with 10 mM heptane sulfonic acid, 0.1% phosphoric acid in both. The gradient is run as 10% ACN to 100% in 30 min. The data was processed using Waters Millennium software version 3.2. The thermal stability also was determined at 60° C. and at 40° C./75% relative humidity. The purity of the sample was determined by assaying weighed aliquots by HPLC against an external standard.

[5] = Thermal stability on storage at 60° C. and at 40° C./75% relative humidity (HPLC assay against external standard); settings: for ASSAY: HPLC
Description: as §1

## [N-]=[N+]=N[C@]1(CO)O[C@@H](n2ccc(N)nc2=O)[C@H](O)[C@@H]1O [Form A of Ia]
[1]
  exothermic decomposition onset temperature: approximately 185 °C
[1]; listed as Form A polymorph of Ia
  exothermic decomposition onset temperature: 185 °C
[2]
  polymorphic transformation: transformed into Form C

## [N-]=[N+]=N[C@]1(CO)O[C@@H](n2ccc(N)nc2=O)[C@H](O)[C@@H]1O [Form B of Ia]
[1]
  exothermic decomposition onset temperature: approximately 189 °C
[1]; listed as Form B polymorph of Ia
  exothermic decomposition onset temperature: 189 °C
[2]
  polymorphic transformation: transformed into Form C

## [N-]=[N+]=N[C@]1(CO)O[C@@H](n2ccc(N)nc2=O)[C@H](O)[C@@H]1O [Form C of Ia]
[1]
  exothermic decomposition onset temperature: approximately 210 °C
[1]; listed as Form C polymorph of Ia
  exothermic decomposition onset temperature: 210 °C
[3]
  Adiabatic Temperature Rise: 265 °C
  corrected exothermic decomposition onset temperature: 152 °C
  enthalpy of decomposition exotherm: -132 cal/g
[4]; 93% RH, 4 weeks
  APPEARANCE: white powder
  POLYMORPH: Form C
  WEIGHT GAIN: 0%
[4]; 93% RH, 4 weeks, HPLC
  ASSAY: 99.9
[4]; 93% relative humidity, 4 weeks
  hygroscopicity: not hygroscopic
[5]; 40° C./75% RH, 1 week
  APPEARANCE: white powder
  POLYMORPH: Form C
  ASSAY: 99.9
[5]; 40° C./75% RH, 2 weeks
  APPEARANCE: white powder
  ASSAY: 99.9
[5]; 40° C./75% RH, 4 weeks
  APPEARANCE: white powder
  POLYMORPH: Form C
  ASSAY: 99.9
[5]; 60° C., 1 week
  APPEARANCE: white powder
  POLYMORPH: Form C
  ASSAY: 99.9
[5]; 60° C., 2 weeks
  APPEARANCE: white powder
  ASSAY: 99.9
[5]; 60° C., 4 weeks
  APPEARANCE: white powder
  POLYMORPH: Form C
  ASSAY: 99.9
[5]; at 40 and 60° C. over the duration of the assay
  thermal stability: thermal stable

## [N-]=[N+]=N[C@]1(CO)O[C@@H](n2ccc(N)nc2=O)[C@H](O)[C@@H]1O [Ia]
[4]
  hygroscopicity relative to the free base: less hygroscopic than the free base
[4]; stored at high relative humidity
  weight gain on storage: No weight gain
